As a reminder, the ED50 is the dose at which the effect has come halfway, by size or by number of responders.

Data set [1] has as its system male Swiss albino mice (CD-1). The experiment in a line: Maximal electroshock seizure test (MES). The format is in vivo. In short, it runs like this: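 Male CD-1 mice (18–26 g) received compound i.p. in 1% aqueous Tween 30 min before a 0.2 s, 500 V, 25 mA auricular electroshock.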
For orientation: The maximal electroshock test induces tonic seizures with an electrical stimulus.

Data set [2] deals with male white Swiss mice (CD-1). The experiment in a line: Formalin test (analgesic activity). The note with it: Mus musculus, ip, i.p., mice. The data set is classed as in vivo. The method, then:
The tests were carried out using male white Swiss mice (CD-1) weighing 18-25 g. All procedures were carried out in accordance with Polish and international guidelines on ethics of animal testing, after obtaining appropriate institutional approval. The study group consisted of 8-10 animals. The tested and reference substances were administered intraperitoneally 30 minutes before given test as suspension in 1% aqueous solution of Tween. All tests/models were carried out based on the procedures described in the specialist literature: the formalin test (Beirith, A.; Santos, A. R.; Calixto, J. B.; Rodrigues, A. L.; Creczynski-Pasa, T. B. Eur. J. Pharmacol. 1998, 345, 233-245), the model of capsaicin-induced pain (Mogilski, S.; Kubacka, M.; Redzicka, A.; Kazek, G.; Dudek, M.; Malinka, W.; Filipek, B. Pharmacol. Biochem. Behav. 2015, 133, 99-110), the model of oxaliplatin-induced neuropathic pain—von Frey test (Sałat, K.; Cios, A.; Wyska, E.; Satat, R.; Mogilski, S.; Filipek, B.; Wigȩkowski, K.; Malawska, B. Pharmacol. Biochem. Behav. 2014, 122, 173-181).
The pain was induced by the subplantar injection of 20 μL of 2.5% formalin solution into the mice right hind paw. The animals were placed in separate, transparent observation chambers for a period of 30 minutes. The measured value was the total licking and biting time of the paw to which the formalin solution was injected. The nociceptive reaction time was calculated for the first 5 minutes after formalin injection (first phase of the test—acute pain) and in the 15-20, 20-25 and 25-30 minutes time intervals after its administration (second phase of the test—inflammatory pain). The observed inhibition of nociceptive reaction—reduction of paw licking and biting time, was interpreted as the analgesic effect of the compound tested. Based on the results obtained, the ED50 dose was calculated (dose that reduces the nociceptive reaction time by 50%). […] Compound 6 was administered at doses of 10 mg/kg, 20 mg/kg and 30 mg/kg.

Data set [3] has as its system male white Swiss mice (CD-1). The data set can be described thus: Oxaliplatin-induced neuropathy, Cold Plate test. The note with it: OXPT-induced neuropathy, plate 2° C. The data set is classed as in vivo. As to the method: Oxaliplatin (OXPT) was dissolved in a 5% glucose solution, followed by intraperitoneal administration to mice. A single dose of 10 mg/kg was used. Tactile and thermal (sensation of low temperature) allodynia associated with oxaliplatin-induced neuropathy are characterized by two phases. The early phase is acute and develops soon after administration of the OXPT, while the symptoms of the later (chronic) phase (associated with neurons damage), develops after a few days. Behavioral tests in mice with OXPT-induced neuropathy were carried out 7 days after its administration, i.e. in the late phase of neuropathy.
The effect of the test compound on thermal allodynia was evaluated in a Cold Plate test using specialized equipment—Cold/Hot Plate; Bioseb, France. The animals were placed individually on a metal plate cooled to 2° C. using the thermostated device. The observed nociceptive reactions of animals included licking and/or characteristic hind paw lift or bounce. The observation time was set at 60 s to eliminate the potential risk of tissue damage and minimize animal discomfort. Similar to the Von Frey test, the measurement was performed 3 times.
Compound 6 was administered at doses of 10, 20 and 30 mg/kg.

Another data set relates to Na+ channel (site 2). The experiment in a line: Na+ channel (site 2) affinity study. The data set is classed as binding. The conditions noted are these: rat cerebral cortex. From the text: (§1) A unique feature of the compound 6 representing compounds of formula (II) according to the invention is the inhibition of calcium currents by blocking the transient receptor potential vanilloid type 1 (TRPV1). This effect has not been disclosed for known AEDs. TRPV1 receptor antagonism may determine the antinociceptive effect of the compounds disclosed herein. The role of the TRPV1 receptor in conduction of pain stimuli has been well documented in specialist literature (Szallasi, A.; Cortright, D. N.; Blum, C. A.; Eid, S. R. Nat. Rev. Drug. Discov. 2007, 6, 357-372). The compounds according to the invention are characterized by a complex mechanism of action, which is not described for known anticonvulsants. It should be emphasized, however, that further in vitro studies may reveal further molecular targets responsible for the pharmacological action of substances being the subject of current patent claim. The results of binding studies (sodium channel, calcium channel) and functional tests (TRPV1 receptor) for compound 6 are shown in Table 3.

The subject of data set [4] is Ca2+ channel type L (dihydropyridine binding site). The experiment in a line: Ca2+ channel type L (dihydropyridine binding site) affinity study. The note with it: rat cerebral cortex.
Text: as §1

A further data set has as its target Potassium channel (hERG) (Homo sapiens, UniProt Q12809). The experiment in a line: Potassium channel (hERG) affinity study. The data set is classed as binding. The note with it: 100 μM, human recombinant cells (HEK-293). A general note: The hERG channel carries a current that helps repolarise heart muscle cells.

Like-named read-outs stand apart in the source and are kept apart here.

Potassium channel (hERG), sequence (Q12809 whole entry): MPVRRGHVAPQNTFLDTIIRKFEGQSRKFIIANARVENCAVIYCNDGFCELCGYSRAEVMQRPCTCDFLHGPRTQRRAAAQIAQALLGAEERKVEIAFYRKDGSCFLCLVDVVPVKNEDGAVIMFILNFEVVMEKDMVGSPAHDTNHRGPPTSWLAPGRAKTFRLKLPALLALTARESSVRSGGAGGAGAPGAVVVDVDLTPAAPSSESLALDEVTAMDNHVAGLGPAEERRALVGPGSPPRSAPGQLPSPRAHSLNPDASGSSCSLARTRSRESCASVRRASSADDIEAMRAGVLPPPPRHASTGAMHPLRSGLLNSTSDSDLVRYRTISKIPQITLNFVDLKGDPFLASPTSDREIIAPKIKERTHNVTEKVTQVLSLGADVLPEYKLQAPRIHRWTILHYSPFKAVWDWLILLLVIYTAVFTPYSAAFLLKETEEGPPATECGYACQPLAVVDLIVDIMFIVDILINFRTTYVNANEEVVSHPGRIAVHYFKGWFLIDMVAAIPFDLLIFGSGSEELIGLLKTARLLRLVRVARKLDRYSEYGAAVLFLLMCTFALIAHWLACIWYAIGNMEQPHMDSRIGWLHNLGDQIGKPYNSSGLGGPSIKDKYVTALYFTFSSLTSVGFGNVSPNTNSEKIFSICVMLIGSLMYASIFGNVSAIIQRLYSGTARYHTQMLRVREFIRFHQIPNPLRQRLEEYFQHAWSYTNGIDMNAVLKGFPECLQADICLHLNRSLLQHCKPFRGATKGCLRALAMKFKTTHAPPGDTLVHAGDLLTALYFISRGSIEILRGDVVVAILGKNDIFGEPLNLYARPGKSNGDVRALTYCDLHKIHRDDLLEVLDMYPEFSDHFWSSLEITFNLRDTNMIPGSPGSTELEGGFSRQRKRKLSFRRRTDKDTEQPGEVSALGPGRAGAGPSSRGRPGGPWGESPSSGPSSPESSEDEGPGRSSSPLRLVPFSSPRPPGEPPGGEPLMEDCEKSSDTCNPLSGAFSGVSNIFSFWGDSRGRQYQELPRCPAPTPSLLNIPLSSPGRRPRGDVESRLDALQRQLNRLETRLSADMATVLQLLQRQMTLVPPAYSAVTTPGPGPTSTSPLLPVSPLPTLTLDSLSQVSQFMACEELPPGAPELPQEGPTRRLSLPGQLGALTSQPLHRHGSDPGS

As for `O=C(C(c1ccccc1)N1C(=O)CCC1=O)N1CCN(c2cccc(C(F)(F)F)c2)CC1` (racemic) [Compound 6, 1-(2-Oxo-1-phenyl-2-(4-(3-(trifluoromethyl)phenyl)piperazin-1-yl)ethyl)pyrrolidine-2,5-dione], the ED50 in data set [1] (Mus musculus, ip, 0.5 h, mice) came to 23.7 mg/kg; in data set [2] (phase I (acute pain, 0-5 min), read-out: ED50 in the first phase of the formalin test), 28.5 mg/kg; in data set [2] (phase II (inflammatory pain, 15-30 min), read-out: ED50 in the second phase of the formalin test), 12.4 mg/kg. For the same compound, the “mice protected in the MES test” value in data set [1] (screening, 100 mg/kg, time point 0.5 h) was found to be 100%. The “effect on thermal allodynia in the cold plate test” value in data set [3] is “significantly increased thermal allodynia sensitivity”. Also, the “Inhibition of specific control binding, Na+ channel (site 2)” value is on record as 33.4 (10) % in the data set on Na+ channel (site 2) (10 μM) and 82.5 (100) % in the data set on Na+ channel (site 2) (100 μM). The “Inhibition of specific control binding, Ca2+ channel type L (dihydropyridine binding site)” value in data set [4] (10 μM) is 30.8 (10) %; in data set [4] (100 μM), 82.3 (100) %. In addition, the “Inhibition of specific control binding, Potassium channel (hERG)” value on Potassium channel (hERG) is recorded as 25.8 (100) %.

Values taken from patent publication US12139458B2, “(2,5-dioxopyrrolidin-1-yl)(phenyl)-acetamide derivatives and their use in the treatment of neurological diseases” (UNIWERSYTET JAGIELLONSKI, priority 2019, dated 2024).
